From publication PMC7774954, “Interactomic affinity profiling by holdup assay: Acetylation and distal residues impact the PDZome-binding specificity of PTEN phosphatase” (PLoS ONE, 2020)
pKd: −log10 of the molar value. *1 amine or outer side, *2 acyl side, *3 side chain or, on linkers, in order; H or OH if unused. Where a SMILES comes first, the peptide text is derived from it. The star is where a group is joined. X1 = O=C(CCCC[C@@H]1SC[C@@H]2NC(=O)N[C@@H]21)NCCCOCCOCCOCCCN*; Suc = O=C(CCC(=O)[*:2])[*:1]

Tests used:
[1] = system: DLG5-3; assay: Holdup assay, DLG5-3; type: binding, human
[2] = biological target: T1, MAGI1 PDZ 2 (Homo sapiens, UniProt Q96QZ7); assay: Holdup assay, MAGI1-2; type: binding
T1 construct: made in house; host or cells: E. coli
T1 sequence (Q96QZ7 472-554 limits assumed): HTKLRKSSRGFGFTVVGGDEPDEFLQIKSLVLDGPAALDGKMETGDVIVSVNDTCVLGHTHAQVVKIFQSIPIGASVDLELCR
Method: (§1) The holdup assay was performed on a Tecan freedom Evo200 robot with 384-well plates in singlicate for the three 11-mer PTEN variants and the 13-mer PTEN peptide as described in [31, 32]. Briefly, prior to interaction assay, 2.5 μL of streptavidin resin was saturated in each well with 20 μL of biotinylated PBM peptides (42 μM) and then washed twice with an excess of free biotin, while the reference resin was incubated only with biotin. Right before the holdup experiment, the PDZ library was spiked with an internal standard of lysozyme. Then, the biotin- or PBM-saturated resin was incubated, each in a distinct well of a 384-well plate, with complete cell lysates diluted so that the concentration of the tag-PDZ present in the crude extract is adjusted at 4 μM. After a sufficient time to reach complex equilibrium (15 min.), a fast and mild filtration step is performed and the tag-PDZ concentrations were measured by capillary electrophoresis instrument (LabChip GXII, PerkinElmer, Massachusets, USA). Standard markers were used to convert migration time into molecular weight on the LabChip software and inappropriate molecular weight markers were corrected or excluded.
(§2) For filtered data, the BI was extracted with the following equation (Eq 1) that estimates the depleted fraction after superimposition of the sample and reference electropherograms: BI=Iref−Ilig/Iref (1) where Iref and Ilig are the intensities of the tag-PDZ peaks measured, for each PDZ domain/PBM peptide interaction pair, in the biotin reference and the PBM electropherograms, respectively.
BIs were transformed into dissociation constants (KD) using the following formula: KD=([PDZtot]−BI·[PDZtot])·([PBMtot]−BI·[PDZtot])/BI·[PDZtot] […] We systematically determined the KD constants for a subset of PDZ/PBM pairs by competitive FP. […] For each PBM, the average peptide concentration was calculated after outlier rejection based on the absolute distances from the median as compared to three times the standard deviation (3σ rule), with never more than 2 values rejected.

[3] = biological target: T2, SCRIB-3 (Homo sapiens, UniProt Q14160); assay: Holdup assay, SCRIB-3; type: binding; details: for BI: PDZ domain SCRIB-3
T2 construct: Representative holdup data recorded for three PDZ domains (MAST2-1, HTRA1-1, SCRIB-3); made in house; host or cells: E. coli
T2 sequence (Q14160 1004-1093 limits assumed): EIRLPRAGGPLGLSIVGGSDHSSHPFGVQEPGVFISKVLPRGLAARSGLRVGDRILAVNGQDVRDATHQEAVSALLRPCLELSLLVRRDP
Method: as §1, §2

[4] = system: LIN7C-1; assay: Holdup assay, LIN7C-1; type: binding, human
[5] = system: GRIP2-5; assay: Holdup assay, GRIP2-5; type: binding, human
[6] = system: DVL3-1; assay: Holdup assay, DVL3-1; type: binding, human
[7] = system: LIN7A-1; assay: Holdup assay, LIN7A-1; type: binding, human
[8] = system: FRMPD1-1; assay: Holdup assay, FRMPD1-1; type: binding, human
[9] = system: IL16-2; assay: Holdup assay, IL16-2; type: binding, human
[10] = biological target: T3, ARHGEF11-1 (Homo sapiens, UniProt O15085); assay: Holdup assay, ARHGEF11-1; type: binding
T3 sequence (O15085 47-126): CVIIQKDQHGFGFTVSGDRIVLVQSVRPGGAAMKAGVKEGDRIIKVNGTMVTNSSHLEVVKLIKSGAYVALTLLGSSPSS

[11] = biological target: T4, HTRA1-1 (Homo sapiens, UniProt Q92743); assay: Holdup assay, HTRA1-1; type: binding
T4 construct: His-MBP or His-TRX (N); made in house; host or cells: E. coli
T4 sequence (Q92743 365-467 limits assumed): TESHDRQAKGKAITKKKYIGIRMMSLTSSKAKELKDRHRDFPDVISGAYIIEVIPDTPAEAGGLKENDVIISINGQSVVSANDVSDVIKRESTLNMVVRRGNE
Method: as §1, §2

[12] = biological target: MAGI2-5 (Homo sapiens, UniProt Q86UL8); assay: Holdup assay, MAGI2-5; type: binding
Sequence of MAGI2-5 (Q86UL8 whole entry): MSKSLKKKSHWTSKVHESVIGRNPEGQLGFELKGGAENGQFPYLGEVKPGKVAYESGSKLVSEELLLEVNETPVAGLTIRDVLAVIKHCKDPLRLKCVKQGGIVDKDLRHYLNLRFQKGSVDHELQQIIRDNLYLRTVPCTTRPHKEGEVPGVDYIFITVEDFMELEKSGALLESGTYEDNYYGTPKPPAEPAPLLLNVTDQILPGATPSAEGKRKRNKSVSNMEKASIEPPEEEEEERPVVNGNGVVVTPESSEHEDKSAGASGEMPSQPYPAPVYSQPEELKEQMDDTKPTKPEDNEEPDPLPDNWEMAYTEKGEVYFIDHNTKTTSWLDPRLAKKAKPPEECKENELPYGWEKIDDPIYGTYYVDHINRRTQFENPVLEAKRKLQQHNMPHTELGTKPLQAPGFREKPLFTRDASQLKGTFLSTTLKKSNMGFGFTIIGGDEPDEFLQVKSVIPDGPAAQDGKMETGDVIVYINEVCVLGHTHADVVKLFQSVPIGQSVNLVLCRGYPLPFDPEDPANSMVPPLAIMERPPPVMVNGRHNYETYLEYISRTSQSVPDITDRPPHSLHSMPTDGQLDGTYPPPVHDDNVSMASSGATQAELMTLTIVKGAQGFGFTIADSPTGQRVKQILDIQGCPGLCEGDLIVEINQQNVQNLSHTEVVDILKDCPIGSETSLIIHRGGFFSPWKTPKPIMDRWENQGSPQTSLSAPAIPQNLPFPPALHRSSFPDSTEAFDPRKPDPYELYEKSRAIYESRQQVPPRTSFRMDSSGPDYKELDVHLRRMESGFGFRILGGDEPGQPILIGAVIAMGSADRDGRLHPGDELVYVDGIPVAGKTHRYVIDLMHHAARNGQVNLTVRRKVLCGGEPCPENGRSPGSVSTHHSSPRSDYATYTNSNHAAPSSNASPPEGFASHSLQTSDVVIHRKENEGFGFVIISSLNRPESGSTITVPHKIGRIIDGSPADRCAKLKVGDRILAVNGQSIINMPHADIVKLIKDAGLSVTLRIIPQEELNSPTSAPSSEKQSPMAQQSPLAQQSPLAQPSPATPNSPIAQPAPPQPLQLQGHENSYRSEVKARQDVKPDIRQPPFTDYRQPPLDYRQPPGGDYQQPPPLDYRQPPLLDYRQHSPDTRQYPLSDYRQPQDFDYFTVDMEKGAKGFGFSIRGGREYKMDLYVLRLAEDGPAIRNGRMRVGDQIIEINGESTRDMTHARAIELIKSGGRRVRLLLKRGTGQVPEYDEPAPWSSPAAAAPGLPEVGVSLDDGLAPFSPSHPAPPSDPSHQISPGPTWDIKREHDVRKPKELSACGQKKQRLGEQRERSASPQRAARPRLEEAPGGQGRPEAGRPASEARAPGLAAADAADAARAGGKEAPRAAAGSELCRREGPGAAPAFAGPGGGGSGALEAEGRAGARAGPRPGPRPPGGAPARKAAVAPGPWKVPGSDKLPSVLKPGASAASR

[13] = system: DLG3-1; assay: Holdup assay, DLG3-1; type: binding, human
[14] = system: DLG5-2; assay: Holdup assay, DLG5-2; type: binding, human
[15] = biological target: LAP2-1 (Homo sapiens, UniProt Q96RT1); assay: Holdup assay, LAP2-1; type: binding
Sequence of LAP2-1 (Q96RT1 1321-1410): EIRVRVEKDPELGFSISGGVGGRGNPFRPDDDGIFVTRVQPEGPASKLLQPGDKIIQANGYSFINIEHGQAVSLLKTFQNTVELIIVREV

[16] = biological target: MAGI1-5 (Homo sapiens, UniProt Q96QZ7); assay: Holdup assay, MAGI1-5; type: binding
Sequence of MAGI1-5 (Q96QZ7 970-1066): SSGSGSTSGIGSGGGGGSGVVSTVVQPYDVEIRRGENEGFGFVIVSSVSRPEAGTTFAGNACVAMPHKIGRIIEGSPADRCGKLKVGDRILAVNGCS

[17] = system: DLG1-3; assay: Holdup assay, DLG1-3; type: binding, human
[18] = biological target: T5, DFNB31-1 (Homo sapiens, UniProt Q9P202); assay: Holdup assay, DFNB31-1; type: binding
T5 sequence (Q9P202 140-223): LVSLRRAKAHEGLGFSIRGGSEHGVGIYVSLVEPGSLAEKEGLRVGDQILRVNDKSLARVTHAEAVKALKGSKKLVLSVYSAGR

[19] = system: LIMK1-1; assay: Holdup assay, LIMK1-1; type: binding, human
[20] = system: DVL2-1; assay: Holdup assay, DVL2-1; type: binding, human
[21] = system: LNX2-3; assay: Holdup assay, LNX2-3; type: binding, human
[22] = system: CNKSR3-1; assay: Holdup assay, CNKSR3-1; type: binding, human
[23] = system: CARD14-1; assay: Holdup assay, CARD14-1; type: binding, human

CC[C@H](C)[C@H](NC(=O)[C@H](CCC(N)=O)NC(=O)[C@@H](NC(=O)[C@H](Cc1c[nH]cn1)NC(=O)[C@H](CCC(N)=O)NC(=O)[C@H](CC(=O)O)NC(=O)[C@H](CCC(=O)O)NC(=O)[C@H](CC(=O)O)NC(=O)CCC(=O)NCCCOCCOCCOCCCNC(=O)CCCC[C@@H]1SC[C@@H]2NC(=O)N[C@@H]21)[C@@H](C)O)C(=O)N[C@H](C(=O)N[C@@H](CCCCNC(C)=O)C(=O)N[C@H](C(=O)O)C(C)C)[C@@H](C)O [PTEN_Ac]
BI [1]: -0.047
LogKD [1]: 3.605
BI [2]: 0.101
BI [3]: -0.053
BI [4]: 0.012
LogKD [4]: 3.605
BI [5]: 0.067
LogKD [5]: 3.605
BI [6]: -0.002
LogKD [6]: 3.605
BI [7]: -0.07
LogKD [7]: 3.605
BI [8]: -0.03
LogKD [8]: 3.605
BI [9]: -0.157
LogKD [9]: 3.605
BI [10]: 0.428
pKd [10]: 4.45
pKd [11]: 4.99
BI ([11]; HTRA1-1): 0.712
BI [12]: 0.148
BI [13]: 0.013
LogKD [13]: 3.605
BI [14]: 0.018
LogKD [14]: 3.605
BI [15]: 0.214
pKd [15]: 4.00
BI [16]: 0.647
pKd [16]: 4.86
BI [17]: -0.088
LogKD [17]: 3.605
BI [18]: 0.09
LogKD [18]: 3.605
BI [19]: -0.047
LogKD [19]: 3.605

CC[C@H](C)[C@H](NC(=O)[C@H](CCC(N)=O)NC(=O)[C@@H](NC(=O)[C@H](Cc1c[nH]cn1)NC(=O)[C@H](CCC(N)=O)NC(=O)[C@H](CC(=O)O)NC(=O)[C@H](CCC(=O)O)NC(=O)[C@H](CC(=O)O)NC(=O)CCC(=O)NCCCOCCOCCOCCCNC(=O)CCCC[C@@H]1SC[C@@H]2NC(=O)N[C@@H]21)[C@@H](C)O)C(=O)N[C@H](C(=O)N[C@@H](CCCCN)C(=O)N[C@H](C(=O)O)C(C)C)[C@@H](C)O [PTEN_11]
BI [1]: 0.034
LogKD [1]: 3.519
BI [20]: -0.008
LogKD [20]: 3.519
BI [2]: 0.077
BI [3]: 0.058
BI (binding intensity) ([3]; SCRIB-3, holdup, singlicate): 0.02
BI [4]: -0.041
LogKD [4]: 3.519
BI [5]: 0.055
LogKD [5]: 3.519
BI [21]: -0.164
LogKD [21]: 3.519
BI [6]: 0.012
LogKD [6]: 3.519
BI [7]: -0.017
LogKD [7]: 3.519
BI [8]: 0.017
LogKD [8]: 3.519
BI [9]: -0.132
LogKD [9]: 3.519
BI [10]: 0.026
LogKD [10]: 3.519
pKd [11]: 4.32
BI ([11]; HTRA1-1): 0.405
BI (binding intensity) ([11]; HTRA1-1, holdup, singlicate): 0.41
BI [12]: 0.214
pKd [12]: 3.91
BI [13]: 0
LogKD [13]: 3.519
BI [14]: 0.001
LogKD [14]: 3.519
BI [15]: 0.305
pKd [15]: 4.13
BI [16]: 0.536
pKd [16]: 4.56
BI [22]: 0.028
LogKD [22]: 3.519
BI [17]: 0.044
LogKD [17]: 3.519
BI [23]: -0.077
LogKD [23]: 3.519
BI [18]: 0.108
BI [19]: -0.066
LogKD [19]: 3.519

CC[C@H](C)[C@H](NC(=O)[C@H](CCC(N)=O)NC(=O)[C@@H](NC(=O)[C@H](Cc1c[nH]cn1)NC(=O)[C@H](CCC(N)=O)NC(=O)[C@H](CC(=O)O)NC(=O)[C@H](CCC(=O)O)NC(=O)[C@H](CC(=O)O)NC(=O)[C@H](Cc1ccccc1)NC(=O)[C@@H]1CCCN1C(=O)CCC(=O)NCCCOCCOCCOCCCNC(=O)CCCC[C@@H]1SC[C@@H]2NC(=O)N[C@@H]21)[C@@H](C)O)C(=O)N[C@H](C(=O)N[C@@H](CCCCN)C(=O)N[C@H](C(=O)O)C(C)C)[C@@H](C)O [PTEN_13] ({X1-Suc}-PFDEDQHTQITKV-OH)
BI [1]: 0.002
BI [20]: -0.026
BI [2]: -0.017
BI [3]: -0.068
BI [4]: -0.105
BI [5]: -0.06
BI [21]: -0.083
BI [6]: -0.003
BI [7]: -0.019
BI [8]: 0.081
BI [9]: -0.025
BI [10]: 0.114
pKd [11]: 4.28
BI ([11]; HTRA1-1): 0.235
BI [12]: 0.046
LogKD [12]: 3.826
BI [13]: -0.03
BI [14]: -0.092
BI [15]: 0.172
BI [16]: 0.274
pKd [16]: 4.38
BI [22]: 0.002
BI [17]: -0.033
BI [23]: -0.001
BI [18]: 0.145
BI [19]: -0.103

CC[C@H](C)[C@H](NC(=O)[C@H](CCC(N)=O)NC(=O)[C@@H](NC(=O)[C@H](Cc1c[nH]cn1)NC(=O)[C@H](CCC(N)=O)NC(=O)[C@H](CC(=O)O)NC(=O)[C@H](CCC(=O)O)NC(=O)[C@H](CC(=O)O)NC(=O)CCC(=O)NCCCOCCOCCOCCCNC(=O)CCCC[C@@H]1SC[C@@H]2NC(=O)N[C@@H]21)[C@@H](C)O)C(=O)N[C@H](C(=O)N[C@@H](CCCNC(=N)N)C(=O)N[C@H](C(=O)O)C(C)C)[C@@H](C)O [PTEN_KR] ({X1-Suc}-DEDQHTQITRV-OH)
BI [1]: -0.084
LogKD [1]: 3.655
BI [20]: -0.027
LogKD [20]: 3.655
BI [3]: 0.022
BI [4]: -0.071
LogKD [4]: 3.655
BI [5]: 0.006
LogKD [5]: 3.655
BI [21]: 0.021
LogKD [21]: 3.655
BI [6]: 0.037
LogKD [6]: 3.655
BI [7]: -0.026
LogKD [7]: 3.655
BI [8]: -0.047
LogKD [8]: 3.655
BI [9]: -0.114
LogKD [9]: 3.655
BI [10]: 0.18
pKd [11]: 4.39
BI ([11]; HTRA1-1): 0.368
BI [12]: -0.074
LogKD [12]: 3.655
BI [13]: 0.066
LogKD [13]: 3.655
BI [14]: -0.028
LogKD [14]: 3.655
BI [15]: 0.205
pKd [15]: 4.03
BI [16]: 0.619
pKd [16]: 4.86
BI [22]: -0.031
LogKD [22]: 3.655
BI [17]: 0.077
LogKD [17]: 3.655
BI [23]: -0.077
LogKD [23]: 3.655
BI [18]: 0.118
BI [19]: -0.08
LogKD [19]: 3.655
